Laboratory results: article PMC7803973, “Structural basis of malaria parasite phenylalanine tRNA-synthetase inhibition by bicyclic azetidines” (Nature Communications, 2021)
Where “and” joins values, the source holds several entries; their conditions need not be identical. Identical values can stand only once.

Assays:
Type in all cases: cell-based
[1] = tested on: Plasmodium falciparum strain 3D7; test: Parasite growth inhibition (drug susceptibility test, pLDH readout)
Description: (§1) The cultivation of P. falciparum was conducted according to Trager’s method with some modification. Precisely, parasites were kept in culture flasks with RPMI1640 medium supplemented with 10% human plasma and 2% fresh human erythrocytes and incubated at 37 °C with the gas condition of 5% CO2 and 5% O2. The parasitemia (percentage of infected erythrocytes to total erythrocytes) were kept within 0.25–10%. Culture medium was replaced, and fresh erythrocytes were supplied every 2–3 days. Drug susceptibility test was conducted according to Desjardins’s method[18] with some modification. […] […] The plates were kept at 37 °C with the gas condition of 5% CO2 and 5% O2 for 72 h and then parasite growth was quantified with Makler’s method to detect plasmdoial lactate dehydrogenase[19] with some modification. Precisely, culture plates were kept in freezer overnight and then thawed at 37 °C to disrupt the erythrocytes and parasite cells. In the new 96-well titer plates, 100 μl of enzyme reaction solution (110 mM Li-lactate, 0.5 mM acetylpyridine-adenine dinucleotide, 50 mM Tris (pH 7.5), 10 mM EDTA, 50 mM KCl, and 15 g l^−1 PEG6000) and 20 µl of freeze-thaw culture were mixed in each well and then kept at room temperature for 30 min. The detection solution was prepared by mixing equal volume of 2 mg ml^−1 nitro blue tetrazolium and 0.1 mg ml^−1 phenazine ethosulfate and 20 µl of the solution was added to each well.

[2] = tested on: Plasmodium falciparum strain K1; test: microbe, parasite or virus in culture
Description: as §1

Dd2 = test: Whole parasite growth inhibition (Dd2), quoted in peer review file; conditions: quoted by Reviewer #2 from the submitted manuscript

COC[C@@H]1[C@H](c2ccc(C#Cc3ccccc3)cc2)[C@@H]2CN(C(=O)Nc3ccc(OC4CC4)cc3)C[C@@H](O)[C@@H](O)CN12 [BRD1389]
% Parasite Growth ([1]; 3D7, 0.000976562 ug/mL): 93.5% | % Parasite Growth ([1]; 3D7, 0.00195312 ug/mL): 94.1% | % Parasite Growth ([1]; 3D7, 0.00390625 ug/mL): 94.0% | % Parasite Growth ([1]; 3D7, 0.0078125 ug/mL): 47.5% | % Parasite Growth ([1]; 3D7, 0.015625 ug/mL): 14.7% | % Parasite Growth ([1]; 3D7, 0.03125 ug/mL): 8.9% | % Parasite Growth ([1]; 3D7, 0.0625 ug/mL): 2.0% | % Parasite Growth ([1]; 3D7, 0.125 ug/mL): 1.8% | % Parasite Growth ([1]; 3D7, 0.25 ug/mL): 1.5% | % Parasite Growth ([1]; 3D7, 0.5 ug/mL): 1.7% | % Parasite Growth ([1]; 3D7, 1 ug/mL): 2.2% | IC50 ([1]; Plasmodium falciparum, 3D7): 0.00753 µg/mL and 13.3 nM | EC50 ([1]; Plasmodium falciparum, 3D7, 72 h): 0.013 µM | % Parasite Growth ([2]; K1, 0.000976562 ug/mL): 92.8% | % Parasite Growth ([2]; K1, 0.00195312 ug/mL): 94.4% | % Parasite Growth ([2]; K1, 0.00390625 ug/mL): 90.7% | % Parasite Growth ([2]; K1, 0.0078125 ug/mL): 40.5% | % Parasite Growth ([2]; K1, 0.015625 ug/mL): 14.2% | % Parasite Growth ([2]; K1, 0.03125 ug/mL): 15.9% | % Parasite Growth ([2]; K1, 0.0625 ug/mL): 4.7% | % Parasite Growth ([2]; K1, 0.125 ug/mL): 2.9% | % Parasite Growth ([2]; K1, 0.25 ug/mL): 2.1% | % Parasite Growth ([2]; K1, 0.5 ug/mL): 2.6% | % Parasite Growth ([2]; K1, 1 ug/mL): 2.6% | IC50 ([2]; Plasmodium falciparum, K1): 0.00685 µg/mL and 12.1 nM | EC50 ([2]; Plasmodium falciparum, K1, 72 h): 0.012 µM | Dd2 growth inhibitory activity (Dd2): < 1 nM
